Values of other authors, collected in patent US20040185170A1, “Method for coating drug-containing particles and formulations and dosage units formed therefrom” (priority 2003, published 2004).

conditions: coating material; from CRC Handbook of Chemistry and Physics, 63rd Edition

Structure (SMILES) | ΔHvap (heat of vaporization)
CCCCCCCCCCCC(=O)OC [Methyl laurate] | 14,853.5 g cal mol^−1
CCCCCCCC/C=C\CCCCCCCC(=O)O [Oleic acid] | 20,326.7 g cal mol^−1
CCCCCCCCCCCCCCCCO [Cetyl alcohol] | 14,483.4 g cal mol^−1
CCCCCCCCCCCCC(=O)O [Tridecanoic acid] | 19,214.8 g cal mol^−1
CCCCCCCCCCCCCCCCCC(=O)O [Stearic acid] | 19,306.6 g cal mol^−1
CCCCCCCCCCCCCCCC(=O)O [Palmitic acid] | 17,603.6 g cal mol^−1
CCCCCCCCCCCCCC(=O)OC [Methyl myristate] | 16,051.0 g cal mol^−1
CCCCCCCCCCCC(=O)O [Lauric acid] | 16,585.3 g cal mol^−1
CCCCCCCCCCCCCC(=O)O [Myristic acid] | 18,380.1 g cal mol^−1
CCCCCCCCCCCCCCCC(=O)OC [Methyl palmitate] | 17,003.5 g cal mol^−1
CCCCCCCCCC(=O)O [Capric acid] | 19,372.6 g cal mol^−1

conditions: normal atmospheric pressure

Structure (SMILES) | temperature at which it slowly volatilizes
CCCCCCCCCCCCCCCCCC(=O)O [Stearic acid] | 90-100 °C
